Key:
LoVo-OXAR cells [1] = settings: 2000 μg/ml, 24 hours, versus control
Procedure: (§1) To evaluate whether the compound (II) induces apoptosis of cancer cells, terminal deoxynucleotidyl transferase dUTP nick-end labeling (TUNEL) assay was employed to detect apoptosis. In brief, LoVo-parental cells and LoVo-OXAR cells were treated with 500 μg/ml and 2000 μg/ml of the compound (II), respectively, for 24 hours before they were subject to TUNEL assay (In Situ Cell Death Detection Kit; Roche Applied Science, Indianapolis, IN, USA) and nuclear counterstain with 0.1 mg/ml 4′,6-diamidino-2-phenylindole (DAPI, Sigma-Aldrich, St. Louis, MO, USA). Lovo-parental or LoVo-OXAR cells treated with 0 μg/ml of the compound (II) were set as control groups. TUNEL-positive cells were examined by Olympus CKX53 microscope (Olympus, Shinjuku-ku, Tokyo, Japan).

LoVo-parental cells [2] = settings: 500 μg/ml, 24 hours, versus control
Procedure: as §1

LoVo-parental cells [3] = settings: single agent: compound (II) 500 μg/ml or oxaliplatin 50 μg/ml, 48 hours
GBM 8401 cells = settings: 0-1800 μg/ml, 24 hours
Procedure: Human brain glioblastoma multiforme GBM 8401 cells (commercially available from BCRC under the number BCRC 60163) were cultured in RPMI 1640 medium supplemented with 10% FBS.

CP70 cells = settings: 0-1600 μg/ml, 24 hours
SCC-25 cells = settings: 0-1400 μg/ml, 24 hours
Procedure: Human oral squamous cell carcinoma (OSCC)SCC-25 cells (commercially available from ATCC under the number CRL-1628) were cultured in DMEM/F12 supplemented with 10% FBS.

HeLa cells = settings: 0.5-1000 μg/ml, 48 hours
Procedure: Human cervical carcinoma HeLa cells (commercially available from ATCC under the number CCL-2) were cultured in DMEM supplemented with 10% FBS.

[4] = tested on: gemcitabine-resistant CL1 cells (CL1-GEMR cells); settings: 0-1600 μg/ml, 24 hours
Procedure: (§2) BEAS-2B cells (95102433, Sigma-Aldrich) were cultured in LHC-9 medium (Gibco™, Thermo Fisher Scientific, Waltham, MA, USA).

CL1-parental cells = settings: 0-1600 μg/ml, 24 hours
Procedure: as §2

BEAS-2B cells = settings: 0-800 μg/ml, 24 hours
Procedure: as §2

T-47D cells = settings: 0-3000 μg/ml, 24 hours
Procedure: (§3) Human breast cancer cells T-47D (commercially available from ATCC under the number HTB-133) and MDA-MB231 (commercially available from ATCC under the number HTB-26) were cultured in RPMI 1640 medium supplemented with 10% FBS.

MDA-MB231 cells = settings: 0-3000 μg/ml, 24 hours; effect more prominent than in T-47D
Procedure: as §3

LoVo-OXAR cells [5] = settings: single agent: compound (II) 2000 μg/ml or oxaliplatin 50 μg/ml, 48 hours
T24 cells = settings: 0-1600 μg/ml, 24 hours
Procedure: Human bladder carcinoma T24 cells (commercially available from ATCC under the number HTB-4) were cultured in RPMI 1640 medium supplemented with 10% FBS.

LNCaP cells = settings: 24 hours
Procedure: Human prostate carcinoma LNCaP cells (commercially available from ATCC under the number CRL-1740) were cultured in RPMI-1640 medium (Gibco™, Thermo Fisher Scientific, Waltham, MA, USA) supplemented with 10% FBS.

[6] = tested on: EMT markers in LoVo-parental cells; settings: qRT-PCR
Excerpt: Vimentin and E-cadherin are molecular markers linked to tumor progression through their roles in EMT, which is a pathological process contributing to migration and invasion of cancer cells and tumor progression. Vimentin is a key component of intermediate filaments, which helps maintain cellular integrity and resistance to stress. E-cadherin plays a role in maintaining epithelial phenotypes by mediating contact inhibition when cells proliferate and reach confluence. To further investigate the influence of the compound (II) on EMT marker expression, western blotting, immunofluorescence detection, and quantitative real-time reverse transcription polymerase chain reaction (qRT-PCR) were performed in LoVo-parental and LoVo-OXAR cells treated with various doses of the compound (II) for 24 hours.
Total RNA from the cells after the indicated treatments was extracted using the GeneJET RNA purification kit (ThermoFisher Scientific, Lithuania) and reverse transcribed to cDNA using a GScript First-Strand Synthesis Kit, a cDNA synthesis kit, and Oligo-dT primers according to the manufacturer's instructions. RT-PCR was performed using ORA^T SEE qPCR Green ROX L Mix, 2× (HighQu, USA). Primers for EMT markers (Vimentin, E-cadherin, TJP1, and FN1) and GAPDH (as endogenous control) were synthesized by Bio-ProTech based the sequences in TABLE 1. The 2^−ΔΔCt method was used to calculate a relative fold change in gene expression. […] TJP1 is a marker of epithelial cells that disappears during EMT and cancer development. In contrast, FN1 is involved in the occurrence and development of various tumors and acts as a critical gene in gastric cancer.

Jurkat cells = settings: 0-1600 μg/ml, 24 hours
Procedure: Human T-acute lymphoblastic leukemia Jurkat cells (resistant to cisplatin and commercially available from ATCC under the number TIB-512) were cultured in RPMI 1640 medium supplemented with 10% FBS.

TT cells = settings: 0.1-1000 μg/ml, 72 hours
Procedure: Human medullary thyroid carcinoma TT cells (commercially available from ATCC under the number CRL-1803) were cultured in F12K medium (Gibco™, Thermo Fisher Scientific, Waltham, MA, USA) supplemented with 10% FBS.

CC(=O)[O-].CC(=O)[O-].CC(=O)[O-].CC(=O)[O-].CC(=O)[O-].CC(=O)[O-].O.O.O.O.O=[N+]([O-])[O-].[Cr+3].[Fe+3].[Fe+3].[OH-].[OH-] [compound (II)]
apoptotic cell death (TUNEL) in LoVo-OXAR cells (LoVo-OXAR cells [1]): significant increase in apoptotic cell death | apoptotic cell death (TUNEL) in LoVo-parental cells (LoVo-parental cells [2]): significant increase in apoptotic cell death | migration rate of LoVo-parental cells (LoVo-parental cells [3]): significantly decreased | viability of GBM 8401 cells (GBM 8401 cells): reduced the viability of the glioblastoma cells in a dose-dependent manner | viability of CP70 cells (CP70 cells): reduced the viability of the ovarian cancer cells in a dose-dependent manner | viability of SCC-25 cells (SCC-25 cells): reduced the viability of the OSCC cells in a dose-dependent manner | viability of HeLa cells (HeLa cells): reduced the viability of the metastatic Hela cells in a dose-dependent manner | viability of gemcitabine-resistant CL1 cells [4]: reduced the viability of both lung cancer cells in a dose-dependent manner | viability of CL1-parental cells (CL1-parental cells): reduced the viability of both lung cancer cells in a dose-dependent manner | survival of non-tumorigenic BEAS-2B cells (BEAS-2B cells): did not significantly inhibit the survival of BEAS-2B cells | viability of T-47D cells (T-47D cells): reduced the viability of both breast cancer cells in a dose-dependent manner | viability of MDA-MB231 cells (MDA-MB231 cells): reduced the viability of both breast cancer cells in a dose-dependent manner | migration rate of LoVo-OXAR cells (LoVo-OXAR cells [5]): significantly decreased | viability of T24 cells (T24 cells): reduced the viability of the bladder carcinoma cells in a dose-dependent manner | viability of LNCaP cells (LNCaP cells; 0-1600 μg/ml): reduced the viability of the prostate cancer cells in a dose-dependent manner | IC50 against LNCaP cells (LNCaP cells; MTT): approximately 1033 μg/ml | E-cadherin mRNA expression [6]: increased | FN1 mRNA expression [6]: decreased | TJP1 mRNA expression [6]: increased | vimentin mRNA expression [6]: decreased | viability of Jurkat cells (Jurkat cells): reduced the viability of the Jurkat cells in a dose-dependent manner | viability of TT cells (TT cells): reduced the viability of the TT cells in a dose-dependent manner

From US20260199371A1, “COORDINATION COMPOUND, COMPOSITIONS, AND USES THEREOF FOR TREATING CANCERS” (HUEIYUAN BIOTECH LLC, priority 2023, published 2026)
